{"source": "ChEMBL document CHEMBL5518178", "about": "(Eur J Med Chem, 2024)", "key": {"[1]": {"system": "MGC-803", "test": "Anti-migratory activity against human MGC-803 cells assessed as decrease in MMP-2 level at 10 to 40 nmol/L by Western blotting", "format": "functional, cell-based", "conditions": "dose 10-40 nmol/L"}, "[2]": {"test": "Toxicity in BALB/c-nude mouse xenografted with human MGC-803 cells assessed as alteration in heart tissue at 30 mg/kg/day, ip administered for 18 days by hematoxylin and eosin staining based analysis", "format": "organism-based", "conditions": "in vivo, 432 h, time 18 day"}, "[3]": {"molecular_target": "T1, Tubulin (Homo sapiens) (UniProt P68371+Q9H4B7+P0DPH7+P68366+Q13509+Q71U36+P04350+Q3ZCM7+P07437+P68363+Q9BQE3+Q6PEY2+Q13885+Q9BVA1+Q9BUF5)", "test": "Inhibition of tubulin polymerization in human MGC-803 cells assessed as appearance of multinucleated cells at 10 to 40 nmol/L incubated for 48 hrs by DAPI staining based fluorescence microscopic analysis", "format": "cell-based", "conditions": "dose 10-40 nmol/L"}, "[4]": {"test": "Toxicity in BALB/c-nude mouse xenografted with human MGC-803 cells assessed as alteration in spleen tissue at 30 mg/kg/day, ip administered for 18 days by hematoxylin and eosin staining based analysis", "format": "organism-based", "conditions": "in vivo, 432 h, time 18 day"}, "[5]": {"system": "KYSE-30", "test": "Antiproliferative activity against human KYSE-30 cells assessed as inhibition of cell growth incubated for 48 hrs by MTT assay", "format": "functional, cell-based", "conditions": "KYSE-30, 48 h"}, "[6]": {"system": "MGC-803", "test": "Antiproliferative activity against human MGC-803 cells assessed as increase in nuclear brightness at 10 to 40 nmol/L incubated for 48 hrs by DAPI staining based fluorescence microscopic analysis", "format": "functional, cell-based", "conditions": "dose 10-40 nmol/L"}, "[7]": {"system": "MGC-803", "test": "Induction of apoptosis in human MGC-803 cells assessed as early apoptotic cells at 20 nmol/L incubated for 48 hrs by Annexin V-FITC/propidium iodide staining based flow cytometer analysis (reference value: 4.38 %)", "format": "functional"}, "[8]": {"system": "MGC-803", "test": "Induction of apoptosis in human MGC-803 cells assessed as necrotic cells at 10 nmol/L incubated for 48 hrs by Annexin V-FITC/propidium iodide staining based flow cytometer analysis (reference value: 0.32 %)", "format": "functional"}, "[9]": {"system": "MGC-803", "test": "Antiproliferative activity against human MGC-803 cells assessed as increase in proportion of dead cells at 10 to 40 nmol/L incubated for 48 hrs by Calcein-AM/propidium iodide staining based fluorescence microscopic analysis", "format": "functional, cell-based", "conditions": "dose 10-40 nmol/L"}, "[10]": {"test": "Toxicity in BALB/c-nude mouse xenografted with human MGC-803 cells assessed as alteration in lung tissue at 30 mg/kg/day, ip administered for 18 days by hematoxylin and eosin staining based analysis", "format": "organism-based", "conditions": "in vivo, 432 h, time 18 day"}, "[11]": {"system": "MGC-803", "test": "Anti-migratory activity against human MGC-803 cells assessed as inhibition of cell migration at lower concentration measured for 48 hrs by wound healing assay", "format": "functional, cell-based"}, "[12]": {"system": "MGC-803", "test": "Induction of cell cycle arrest in human MGC-803 cells at M phase assessed as increase in p-Histone H3 level at 10 to 40 nmol/L incubated for 48 hrs by Western blotting", "format": "functional, cell-based", "conditions": "dose 10-40 nmol/L"}, "[13]": {"system": "MGC-803", "test": "Inhibition of colony formation in human MGC-803 cells incubated for 7 days by crystal violet staining based analysis", "format": "functional, cell-based", "conditions": "dose 24-40 nmol/L, time 7.0 day"}, "[14]": {"system": "MGC-803", "test": "Induction of apoptosis in human MGC-803 cells assessed as decrease in Bcl-xL protein level at 10 to 40 nmol/L incubated for 48 hrs by Western blotting", "format": "functional, cell-based", "conditions": "dose 10-40 nmol/L"}, "[15]": {"molecular_target": "T1, Tubulin (Homo sapiens)", "test": "Inhibition of tubulin polymerization in human MGC-803 cells assessed as reduction in filamentous microtubule structure formation at 10 to 40 nmol/L incubated for 48 hrs by DAPI staining based fluorescence microscopic analysis", "format": "cell-based", "conditions": "dose 10-40 nmol/L"}, "[16]": {"system": "MGC-803", "test": "Induction of apoptosis in human MGC-803 cells assessed as caspase-7 cleavage at 10 to 40 nmol/L incubated for 48 hrs by Western blotting", "format": "functional, cell-based", "conditions": "dose 10-40 nmol/L"}, "[17]": {"system": "MGC-803", "test": "Induction of cell cycle arrest in human MGC-803 cells assessed as increase in G2/M phase cells at 10 to 40 nmol/L incubated for 24 hrs by RNAse/propidium iodide staining based flow cytometry analysis relative to control", "format": "functional", "conditions": "dose 10-40 nmol/L, at 10 to 40 nM"}, "[18]": {"system": "MGC-803", "test": "Induction of apoptosis in human MGC-803 cells assessed as increase in cleaved PARP at 10 to 40 nmol/L incubated for 48 hrs by Western blotting", "format": "functional, cell-based", "conditions": "dose 10-40 nmol/L"}, "[19]": {"system": "MGC-803", "test": "Anti-migratory activity against human MGC-803 cells assessed as decrease in MMP-9 level at 10 to 40 nmol/L by Western blotting", "format": "functional, cell-based", "conditions": "dose 10-40 nmol/L"}, "[20]": {"system": "MGC-803", "test": "Induction of apoptosis in human MGC-803 cells assessed as late apoptotic cells at 40 nmol/L incubated for 48 hrs by Annexin V-FITC/propidium iodide staining based flow cytometer analysis (reference value: 2.22 %)", "format": "functional"}, "[21]": {"system": "MGC-803", "test": "Induction of apoptosis in human MGC-803 cells assessed as caspase-9 cleavage at 10 to 40 nmol/L incubated for 48 hrs by Western blotting", "format": "functional, cell-based", "conditions": "dose 10-40 nmol/L"}, "[22]": {"test": "Toxicity in BALB/c-nude mouse xenografted with human MGC-803 cells assessed as alteration in kidney tissue at 30 mg/kg/day, ip administered for 18 days by hematoxylin and eosin staining based analysis", "format": "organism-based", "conditions": "in vivo, 432 h, time 18 day"}, "[23]": {"system": "MGC-803", "test": "Antiproliferative activity against human MGC-803 cells assessed as decrease in cell density at 10 to 40 nmol/L incubated for 48 hrs by bright field microscopic analysis", "format": "functional, cell-based", "conditions": "dose 10-40 nmol/L"}, "[24]": {"system": "MGC-803", "test": "Antiproliferative activity against human MGC-803 cells assessed as inhibition of cell growth incubated for 48 hrs by MTT assay", "format": "functional, cell-based", "conditions": "MGC-803, 48 h"}, "[25]": {"system": "MGC-803", "test": "Antiproliferative activity against human MGC-803 cells assessed as increase in nuclear concentration at 10 to 40 nmol/L incubated for 48 hrs by DAPI staining based fluorescence microscopic analysis", "format": "functional, cell-based", "conditions": "dose 10-40 nmol/L"}, "[26]": {"system": "MGC-803", "test": "Induction of apoptosis in human MGC-803 cells assessed as viable cells at 10 nmol/L incubated for 48 hrs by Annexin V-FITC/propidium iodide staining based flow cytometer analysis (reference value: 93.08 %)", "format": "functional", "conditions": "read-out: Activity"}, "[27]": {"system": "MGC-803", "test": "Antiproliferative activity against human MGC-803 cells assessed as decrease in cell damage at 10 to 40 nmol/L incubated for 48 hrs by bright field microscopic analysis", "format": "functional, cell-based", "conditions": "dose 10-40 nmol/L"}, "[28]": {"molecular_target": "Tubulin beta (Homo sapiens) (UniProt P68371+Q9H4B7+Q13509+P04350+Q3ZCM7+P07437+Q13885+Q9BVA1+Q9BUF5+A6NNZ2)", "test": "Binding affinity to beta-tubulin (unknown origin) colchicine binding site assessed as reduction in beta-tubulin-EBI adduct at 10 to 30 uM incubated for 2 hrs in presence of EBI by Western blotting", "format": "protein assay", "conditions": "dose 10-30 µM"}, "[29]": {"system": "HCT-116", "test": "Antiproliferative activity against human HCT-116 cells assessed as inhibition of cell growth incubated for 48 hrs by MTT assay", "format": "functional, cell-based", "conditions": "HCT-116, 48 h"}, "[30]": {"system": "MGC-803", "test": "Induction of apoptosis in human MGC-803 cells assessed as viable cells at 20 nmol/L incubated for 48 hrs by Annexin V-FITC/propidium iodide staining based flow cytometer analysis (reference value: 93.08 %)", "format": "functional", "conditions": "read-out: Activity"}, "[31]": {"test": "Toxicity in BALB/c-nude mouse xenografted with human MGC-803 cells assessed as alteration in liver tissue at 30 mg/kg/day, ip administered for 18 days by hematoxylin and eosin staining based analysis", "format": "organism-based", "conditions": "in vivo, 432 h, time 18 day"}, "[32]": {"system": "MGC-803", "test": "Induction of apoptosis in human MGC-803 cells assessed as viable cells at 40 nmol/L incubated for 48 hrs by Annexin V-FITC/propidium iodide staining based flow cytometer analysis (reference value: 93.08 %)", "format": "functional", "conditions": "read-out: Activity"}}, "note": "Calls of active or inactive are those of the source. The rule behind the calls is not given here."}
{"smiles": "COc1ccc2c(c1)CCCN2c1cc(=O)oc2ccccc12", "values": [{"measurement": "Activity", "setting": "[1]", "value": "Active"}, {"measurement": "Activity", "setting": "[2]", "value": "Non-Toxic"}, {"measurement": "inhibition", "setting": "[3]", "value": "Active"}, {"measurement": "Activity", "setting": "[4]", "value": "Non-Toxic"}, {"measurement": "IC50", "setting": "[5]", "value": 190, "unit": "nM"}, {"measurement": "Activity", "setting": "[6]", "value": "Active"}, {"measurement": "Activity", "setting": "[7]", "value": 9.14, "unit": "%"}, {"measurement": "Activity", "setting": "[8]", "value": 0.34, "unit": "%"}, {"measurement": "Activity", "setting": "[9]", "value": "Active"}, {"measurement": "Activity", "setting": "[10]", "value": "Non-Toxic"}, {"measurement": "Activity", "setting": "[11]", "value": "Active"}, {"measurement": "Activity", "setting": "[12]", "value": "Active"}, {"measurement": "inhibition", "setting": "[13]", "value": "Dose-Dependent Effect"}, {"measurement": "Activity", "setting": "[14]", "value": "Active"}, {"measurement": "inhibition", "setting": "[15]", "value": "Active"}, {"measurement": "Activity", "setting": "[16]", "value": "Active"}, {"measurement": "Activity", "setting": "[17]", "value": 18, "unit": "%"}, {"measurement": "Activity", "setting": "[18]", "value": "Active"}, {"measurement": "Activity", "setting": "[19]", "value": "Active"}, {"measurement": "Activity", "setting": "[20]", "value": 17.65, "unit": "%"}, {"measurement": "Activity", "setting": "[21]", "value": "Active"}, {"measurement": "Activity", "setting": "[22]", "value": "Non-Toxic"}, {"measurement": "Activity", "setting": "[23]", "value": "Active"}, {"measurement": "IC50", "setting": "[24]", "value": 34, "unit": "nM"}, {"measurement": "Activity", "setting": "[25]", "value": "Active"}, {"measurement": "viability at 0.01 µM", "setting": "[26]", "value": 92.2, "unit": "%"}, {"measurement": "Activity", "setting": "[27]", "value": "Active"}, {"measurement": "Activity", "setting": "[28]", "value": "Active"}, {"measurement": "IC50", "setting": "[29]", "value": 81, "unit": "nM"}, {"measurement": "viability at 0.02 µM", "setting": "[30]", "value": 88, "unit": "%"}, {"measurement": "Activity", "setting": "[31]", "value": "Non-Toxic"}, {"measurement": "viability at 0.04 µM", "setting": "[32]", "value": 39.1, "unit": "%"}]}
